Here are results for one molecule from ChEMBL document CHEMBL5143607, “Discovery and structure-activity relationships of a novel oxazolidinone class of bacterial type II topoisomerase inhibitors” (Bioorg Med Chem Lett, 2022).

The test system of test [1] is Acinetobacter baumannii. The test can be described thus: In vivo antibacterial activity against multidrug resistant Acinetobacter baumannii NCTC 13420 infected in mouse thigh infection model assessed in reduction in bacterial burden at 20 mg/kg, iv administered at 1 hr post infection and measured after 8 hrs (reference value: 5.4 log10CFU/g). In kind it is functional.

The subject of test [2] is Acinetobacter baumannii. The test can be described thus: In vivo antibacterial activity against multidrug resistant Acinetobacter baumannii NCTC 13420 infected in mouse thigh infection model assessed as log change in bacterial burden at 20 mg/kg, iv administered at 1 hr post infection and measured after 8 hrs relative to control. The format is functional.

Take `CN(C)c1cc(NC(=O)CNC(C)(C)C)c(O)c2c1C[C@H]1C[C@H]3[C@H](N(C)C)C(O)=C(C(N)=O)C(=O)[C@@]3(O)C(O)=C1C2=O` [TIGECYCLINE]: the Activity with Acinetobacter baumannii [1] is given as 4.2 log10CFU/g; with Acinetobacter baumannii [2] it was -1.2 log10CFU/g.
